Values quoted from earlier work as cited in patent publication US7488755B2, “Derivatives of glycinergic R(+)-2-amino-3-hydroxypropanoic acid” (Prestwick Pharmaceuticals, Inc., priority 2002, dated 2009).

Experiments:
schizophrenic patients = details: very high oral doses (>30 g/day)
schizophrenia patients = details: 2 g/day, double-blind clinical trial, also in patients with little response to conventional antipsychotics

NCC(=O)O [glycine]
effect on negative symptoms in schizophrenic patients (schizophrenic patients): improvement in the negative symptoms

N[C@H](CO)C(=O)O [D-serine]
efficacy in the treatment of schizophrenia (schizophrenia patients): effective in the treatment of schizophrenia
